# Reference: patent US6906205B2, “Spiro and dispiro 1,2,4-trioxolane antimalarials” (Medicines for Malaria Venture MMV, priority 2002, dated 2005)
# Where two headings read alike, the source gives them in different places.
# Assays:
# [1] = tested on: ANKA strain of P. berghei; assay: single dose STI in vivo screen in infected mice; set-up: species or system Plasmodium berghei
# Outline: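 Groups of 3-5 Moro SPF or NMRI mice infected with the ANKA strain of P. berghei received a single dose of trioxolane on day one post-infection. The compound was given in 3% ethanol and 7% Tween 80 or in SSV (0.5% w/v CMC, 0.5% v/v benzyl alcohol, 0.4% v/v Tween 80, 0.9% w/v sodium chloride in water). Antimalarial activity was scored as percent reduction in parasitemia on day three and as survival time versus untreated controls. Survival to day 30 counted as cure.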
# [2] = tested on: parasitemia (malaria infection); assay: onset of action and recrudescence experiments; assay type: in vivo
# Method: The onset of drug action was determined after a single fixed dose of 100 mg/kg (SSV vehicle) po to groups of five animals on day +3 post-infection (day 0).
# [3] = tested on: ANKA strain of Plasmodium berghei; assay: single dose ED50/ED90/ED99 determinations in infected mice; assay type: in vivo
# Outline: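 Mice (Moro SPF or NMRI, n=3 per group) infected with P. berghei ANKA received a single dose on day 1 post-infection, vehicle 0.5% CMC/0.5% benzyl alcohol/0.4% Tween 80/0.9% NaCl in water. Read-out is percent reduction in parasitemia on day 3; ED values by nonlinear fitting.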
# P. berghei ANKA strain [4] = assay: treatment: 3x10 mg/kg p.o. divided dose vs 1x30 mg/kg po single dose in infected mice; assay type: in vivo, Plasmodium berghei; conditions: for Activity (%) p.o. SSV: percent reduction of parasitemia day 4
# Method: Moro NMRI male mice (Fü Albino specific pathogen free) weighing 18±2 g were infected intravenously (i.v.) with 2×10^7 P. berghei ANKA strain-infected erythrocytes from donor mice on day 0 of the experiment. From donor mice with circa 30% parasitemia, heparinized blood was taken and diluted in physiological saline to 10^8 parasitized erythrocytes per ml. An aliquot (0.2 ml) of this suspension was injected i.v. into experimental and control groups of mice. […] Throughout the experiments, mice were kept in groups of three or five animals in Makrolon type II cages in an air-conditioned animal room at 22 to 23° C.
# They were administered per os (p.o.) in a total volume of 0.01 ml per gram of mouse. The activity of the compound was determined by a variety of methods outlined in subsequent sections. Survival time was also recorded, and survival to day 30 post-infection was considered to be a cure.
# The first experiment conducted consisted of administration of a divided 3×10 mg/kg p.o. dose administered on days 1, 2, and 3 post-infection vs. a single 1×30 mg/kg po dose administered on day 1 post-infection. On day 4 post-infection, blood smears of all animals were prepared and stained with Giemsa. […] Compounds were administered orally in the SSV vehicle.
# P. berghei ANKA strain [5] = assay: treatment: 3x3 mg/kg and 3x1 mg/kg po divided doses in infected mice; assay type: in vivo, Plasmodium berghei; conditions: for Activity (%) p.o. SSV: percent reduction of parasitemia day 4
# Outline: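 NMRI mice infected i.v. with 2×10^7 P. berghei ANKA-parasitized erythrocytes on day 0, then dosed orally in SSV vehicle at 3×3 or 3×1 mg/kg on days 1–3. Day-4 Giemsa smears gave percent parasitemia reduction versus untreated controls; survival to day 30 counted as cure.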
# P. berghei ANKA strain [6] = assay: prophylactic activity, single 100 mg/kg po dose before infection; assay type: in vivo, Plasmodium berghei; conditions: for Prophylactic Activity (%): reduction of parasitemia day 3 post-infection
# Method: Moro NMRI male mice (Fü Albino specific pathogen free) weighing 18±2 g were infected intravenously (i.v.) with 2×10^7 P. berghei ANKA strain-infected erythrocytes from donor mice on day 0 of the experiment. From donor mice with circa 30% parasitemia, heparinized blood was taken and diluted in physiological saline to 10^8 parasitized erythrocytes per ml. An aliquot (0.2 ml) of this suspension was injected i.v. into experimental and control groups of mice. In untreated control mice, parasitemia rose regularly to 40 to 50% by day 3 post-infection and 70 to 80% by day 4 post-infection. The mice died between days 5 and 7 post-infection. Throughout the experiments, mice were kept in groups of three or five animals in Makrolon type II cages in an air-conditioned animal room at 22 to 23° C. A diet with p-aminobenzoic acid (PABA) of 45 mg (NAFAG FUTTER© food N^o 9009 PAB-45) per kg of body weight, and tap water is available ad libitum.
# OZ compounds were prepared at an appropriate concentration, either as a solution or a suspension containing SSV (0.5% w/v CMC, 0.5% v/v benzyl alcohol, 0.4% v/v Tween 80, and 0.9% w/v sodium chloride in water). They were administered per os (p.o.) in a total volume of 0.01 ml per gram of mouse. The activity of the compound was determined by a variety of methods outlined in subsequent sections. Survival time was also recorded, and survival to day 30 post-infection was considered to be a cure.
# Prophylactic activities of the compounds were compared after administering po single dose of 100 mg/kg to different groups of five animals at various times before infection. All groups including an untreated control group, were then infected at the same time. Parasitemia was determined for each animal on day 3 post-infection, and percent of reduction of the level of parasitemia compared to levels for animals given no drug is determined.
# [7] = tested on: P. falciparum NF54 strain (sensitive to standard antimalarials); assay: semiautomated microdilution assay, [3H]-hypoxanthine incorporation, NF54 strain; assay type: cell-based, Plasmodium falciparum; conditions: NF54 strain, 72 h incubation
# Outline: (§1)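 Asynchronous stock cultures → intraerythrocytic forms; semiautomated microdilution; IC50 by logit regression.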
# [8] = tested on: P. falciparum K1 strain (Thailand resistant to chloroquine); assay: semiautomated microdilution assay, [3H]-hypoxanthine incorporation, K1 strain; assay type: cell-based, Plasmodium falciparum; conditions: K1 strain, 72 h incubation
# Outline: as §1
# Schistosoma japonicum = assay: effect in mice infected with Schistosoma japonicum; assay type: in vivo; conditions: for MFWB/x ± SD (mean female worm burden): control 11.6 ± 2.4; for MTWB/x ± SD (mean total worm burden): control 26.6 ± 4.2
# [9] = tested on: Schistosoma mansoni adult schistosomes (49-day-old); assay: effect on adult schistosomes (49-day-old) in mice; assay type: in vivo
# Method: Mice were infected with 100 Schistosoma mansoni cercariae […]. Each group was treated per os with OZ compounds at single doses of 200, 400, and 600 mg/kg. […] All groups were killed 4 weeks after treatment and the liver and intestine were removed and separated. The liver and intestine were compressed and alive male and female worms could be seen and counted.
# [10] = percent reduction in parasitemia day 3 post-infection, single 3 mg/kg po in SSV
# [11] = single 100 mg/kg po (SSV) on day +3 post-infection, recrudescence = >5% parasitemia, followed up to 60 days, (n/5) = animals
# [12] = single dose po in SSV, mice, percent reduction in parasitemia on day three post-infection
# [13] = 3 × 10 mg/kg days 1, 2, 3 post-infection
# [14] = 3 × 1 mg/kg days 1, 2, 3 post-infection
# [15] = 3 × 3 mg/kg days 1, 2, 3 post-infection
# [16] = single 100 mg/kg po 24 h before infection
# [17] = age of worm 7 days, 200 mg/kg x 1
# [18] = age of worm 35 days, 200 mg/kg x 1
# [19] = age of worm 35 days, 400 mg/kg x 1
smiles,measurement,setting,value
"C[C@H]1[C@H](OC(=O)CCC(=O)O)O[C@@H]2O[C@@]3(C)CC[C@H]4[C@H](C)CC[C@@H]1[C@@]24OO3 [AS, artesunate, reference compound]",Activity (%) 3 mg/kg SSV po,[1]; [10],66%
same,Activity (%) 10 mg/kg SSV po,"[1]; percent reduction in parasitemia day 3 post-infection, single 10 mg/kg po in SSV",87%
same,Survival (days) 10 mg/kg SSV po,[1]; single 10 mg/kg po in SSV,7.0 days
same,Time of Recrudescence,[2]; [11],8.6 days
same,ED50,"[3]; Plasmodium berghei, po",4.7 mg/kg
same,ED90,[3]; [12],19 mg/kg
same,ED99,[3]; [12],60 mg/kg
same,Activity (%) p.o. SSV,P. berghei ANKA strain [4]; 1 × 30 mg/kg single dose day 1 post-infection,83.83%
same,Survival (days) p.o. SSV,P. berghei ANKA strain [4]; [13],11 days
same,Activity (%) p.o. SSV,P. berghei ANKA strain [4]; [13],98.62%
same,Cures,"P. berghei ANKA strain [4]; 3 × 10 mg/kg, survival to day 30 post-infection = cure, cured/treated mice",0/5
same,Survival (days) p.o. SSV,P. berghei ANKA strain [5]; [14],6.8 days
same,Activity (%) p.o. SSV,P. berghei ANKA strain [5]; [14],39%
same,Survival (days) p.o. SSV,P. berghei ANKA strain [5]; [15],9.4 days
same,Activity (%) p.o. SSV,P. berghei ANKA strain [5]; [15],78%
same,Prophylactic Activity (%),P. berghei ANKA strain [6]; [16],6.28%
same,Prophylactic Activity (%),P. berghei ANKA strain [6]; single 100 mg/kg po at 0 h,92.44%
"OC(c1cc(C(F)(F)F)nc2c(C(F)(F)F)cccc12)C1CCCCN1 (stereo not drawn) [MFQ, mefloquine, reference compound]",IC50,"[7]; Plasmodium falciparum, read-out: IC50 (ng/ml) NF54",5 ng/mL
same,Activity (%) 3 mg/kg SSV po,[1]; [10],9%
same,Survival (days) 3 mg/kg SSV po,[1]; single 3 mg/kg po in SSV,6.3 days
same,Survival (days) 10 mg/kg SSV po,[1]; single 10 mg/kg po in SSV,17 days
same,Time of Recrudescence,[2]; [11],28.0 days
same,onset of action (decline in parasitemia),"[2]; single 100 mg/kg po (SSV), parasitemia monitored 12, 24, 48 h after treatment",slow onset of action
same,ED50,"[3]; Plasmodium berghei, single dose po in SSV, mice, percent reduction in parasitemia on day three post-infection, read-out: ED50",4 mg/kg
same,ED90,[3]; [12],5.4 mg/kg
same,ED99,[3]; [12],6.8 mg/kg
same,Survival (days) p.o. SSV,P. berghei ANKA strain [5]; [14],6.2 days
same,Activity (%) p.o. SSV,P. berghei ANKA strain [5]; [14],2%
same,Survival (days) p.o. SSV,P. berghei ANKA strain [5]; [15],12 days
same,Activity (%) p.o. SSV,P. berghei ANKA strain [5]; [15],98%
same,Prophylactic Activity (%),P. berghei ANKA strain [6]; [16],100%
same,Prophylactic Activity (%),P. berghei ANKA strain [6]; single 100 mg/kg po 48 h before infection,99.92%
same,Prophylactic Activity (%),P. berghei ANKA strain [6]; single 100 mg/kg po 72 h before infection,99.97%
same,Prophylactic Activity (%),P. berghei ANKA strain [6]; single 100 mg/kg po at 0 h,100%
same,duration of prophylactic protection,P. berghei ANKA strain [6]; single 100 mg/kg po before infection,3 days
Cc1ccc(S(=O)(=O)O)cc1.NC[C@H]1CC[C@]2(CC1)OOC1(O2)C2CC3CC(C2)CC1C3 (stereo partly drawn) [OZ207],IC50 (ng/ml) K1,[8],0.33 ng/mL
same,IC50 (ng/ml) NF54,[7],0.57 ng/mL
same,Activity (%) po,"[1]; percent reduction in parasitemia day 3 post-infection, single 10 mg/kg po in 3% ethanol and 7% Tween 80, mice",99.96%
same,Activity (%) sc,"[1]; percent reduction in parasitemia day 3 post-infection, single 10 mg/kg sc in 3% ethanol and 7% Tween 80, mice",99.98%
same,Activity (%) SSVpo,"[1]; percent reduction in parasitemia day 3 post-infection, single po dose in standard suspending vehicle (SSV), mice",99.98%
same,Survival (days) po,"[1]; single 10 mg/kg po in 3% ethanol and 7% Tween 80, untreated control 5.6 ± 0.3",9.3 days
same,Survival (days) sc,"[1]; single 10 mg/kg sc in 3% ethanol and 7% Tween 80, untreated control 5.6 ± 0.3",11.3 days
same,Survival (days) SSVpo,"[1]; single po dose in SSV, untreated control 5.6 ± 0.3",12.0 days
same,Time of Recrudescence (days),[2]; [11],no recrudescence
same,Mice without ♀ worm,Schistosoma japonicum; [17],0/8
same,MFWB/x ± SD (mean female worm burden),Schistosoma japonicum; [17],2.1 ± 1.0
same,MTWB/x ± SD (mean total worm burden),Schistosoma japonicum; [17],5.4 ± 2.4
same,FWRR/% (female worm reduction rate),Schistosoma japonicum; [18],95%
same,Mice without ♀ worm,Schistosoma japonicum; [18],4/7
same,WRR/% (worm reduction rate),Schistosoma japonicum; [18],66%
same,MFWB/x ± SD (mean female worm burden),Schistosoma japonicum; [18],0.6 ± 0.7
same,MTWB/x ± SD (mean total worm burden),Schistosoma japonicum; [18],9.1 ± 3.9
same,FWRR/% (female worm reduction rate),Schistosoma japonicum; [19],94%
same,Mice without ♀ worm,Schistosoma japonicum; [19],4/6
same,MFWB/x ± SD (mean female worm burden),Schistosoma japonicum; [19],0.7 ± 1.2
same,MTWB/x ± SD (mean total worm burden),Schistosoma japonicum; [19],4.3 ± 1.2
same,Tox (mice),"[9]; 600 mg/kg per os, infected mice",Tox: ++2/5
same,"% reduction of adult worms growth at day 49 after per os application of 200 mg/kg, TWR (%)",[9]; single 200 mg/kg per os,32%
same,"adult worms at day 49, per os 200 mg/kg, DEAD WORM (%)",[9]; single 200 mg/kg per os,17%
same,"% reduction of adult worms growth at day 49 after per os application of 400 mg/kg, TWR (%)",[9]; single 400 mg/kg per os,35%
same,"adult worms at day 49, per os 400 mg/kg, DEAD WORM (%)",[9]; single 400 mg/kg per os,21%
same,"% reduction of adult worms growth at day 49 after per os application of 600 mg/kg, TWR (%)",[9]; single 600 mg/kg per os,11%
same,"adult worms at day 49, per os 600 mg/kg, DEAD WORM (%)",[9]; single 600 mg/kg per os,24%
same,ED50,[3]; [12],0.37 mg/kg
same,ED90,[3]; [12],1.2 mg/kg
same,ED99,[3]; [12],3.0 mg/kg
